In patent US20240294499A1, “TARGETED PROTEIN DEGRADATION USING BIFUNCTIONAL COMPOUNDS THAT BIND UBIQUITIN LIGASE AND TARGET MCL-1 PROTEIN” (Captor Therapeutics S.A., priority 2021, published 2024):
Structures can show the parent of a compound that is named as a salt.

Tests used:
[1] = test system: MV-4-11 cells; assay: Cell viability assay (CellTiter-Glo), MV-4-11; assay type: cell-based; conditions: Homo sapiens, MV4-11, 24 hours incubation, 1% FBS, read-out: Average pIC50 by molecule MV-4-11 (converted)
Text: The effect of various compounds of the invention on the viability of OPM-2, MV-4-11 and ARH-77 cell lines was investigated, using the CTG protocol described below.
OPM-2 and MV-4-11 cell lines are derived from multiple myeloma and acute myeloid leukaemia, respectively. Both cell lines are described in the literature as MCL-1 dependent lines, as opposed to lymphoblast-like ARH-77 cell line, which is described as independent of MCL-1 (Tron A E et al. Nat Commun. 2018; 9: 5341; Caenepeel S et al. Cancer Discov. 2018 December; 8(12):1582-1597).
Cells (OPM-2, MV-4-11 or ARH-77) were seeded on […] in a growth medium with FBS reduced to 1%. Next, compound stocks were pre-diluted in DMSO and added directly to the cells growth medium (final DMSO concentration: 0.5%). Compound concentrations used in this assay: 1/3 dilutions starting at 30 uM (9 to 12 points).
After 24 hours of incubation, cell viability was evaluated using CellTiter-Glo Luminescent Cell Viability Assay (Promega, cat #G7572). Luminescence signal was measured using a CLARIOstar Plus Multi-Mode Microplate Reader (574-590 nm).
Results were normalized to DMSO control.

[2] = biological target: [MCL-1]-[compound of formula (I)]-[CRBN/DDB1] complex (Homo sapiens, UniProt Q07820+Q96SW2); assay: AlphaLISA dose response ternary complex formation assay; assay type: binding; conditions: read-out: AlphaLISA dose response Average pEC50 by molecule (converted)
Protocol: The effect of the bifunctional compounds of the invention on the formation of a ternary complex composed of [MCL-1]-[compound of formula (I)]-[CRBN/DDB1] was investigated with two methods: AlphaLISA dose response assay or HTRF ternary complex assay.
Two types of protein solution were prepared: • 40 nM biotinylated hMCL-1, 40 μg/ml AlphaScreen Streptavidin-coated Donor Beads in PBS buffer with 0.1% Tween-20 and 1 mM DTT, • 200 nM 6×His-CRBN/Strep-DDB1, 40 μg/ml AlphaLISA Anti-6×His Acceptor beads in PBS buffer with 0.1% Tween-20 and 1 mM DTT.
The prepared solutions were incubated at room temperature for 45 min and then the solution containing the donor beads was mixed with the solution containing the acceptor beads.
The tested compounds were dispensed onto a white 384-well AlphaPlate 384 SW. DMSO was backfilled to all wells, resulting in a final DMSO content of 2%. Wells containing only DMSO served as background. Next, 10 μl of solution with donor and acceptor beads was added to the wells.
The plate was sealed with transparent film and shaken using a VibroTurbulator for 60 see at room temperature, level 3. The plate was then spun down shortly (10 s, 1000 rcf, room temperature) and incubated at 25° C. for 30 min.
The read-out was performed with PerkinElmer Enspire Multimode Plate Reader (method for AlphaLISA 384-well low volume, Filterset: λexc=680 nm, λem=615 nm).
The results were analyzed as follows: • 1) an average of luminescence for background signal was calculated and used as a negative control; • 2) average of the maximum measured luminescence for 233 was calculated and used as an internal positive control; • 3) raw luminescence values were normalized against positive and negative controls; • 4) concentration points above the hook point were excluded; • 5) EC50 and pEC50 values were determined.

[MCL-1]-[compound of formula (I)]-[CRBN/DDB1] complex, sequence (Q07820 whole entry): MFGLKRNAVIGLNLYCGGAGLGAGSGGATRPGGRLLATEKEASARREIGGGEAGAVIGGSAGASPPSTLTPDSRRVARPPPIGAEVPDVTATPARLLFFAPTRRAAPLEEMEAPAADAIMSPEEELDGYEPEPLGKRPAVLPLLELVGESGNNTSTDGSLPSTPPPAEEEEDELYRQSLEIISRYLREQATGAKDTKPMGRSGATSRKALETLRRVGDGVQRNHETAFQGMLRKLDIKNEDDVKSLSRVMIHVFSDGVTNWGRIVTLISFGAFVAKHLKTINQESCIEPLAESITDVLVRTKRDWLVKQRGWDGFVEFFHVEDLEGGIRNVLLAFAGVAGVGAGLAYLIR
[MCL-1]-[compound of formula (I)]-[CRBN/DDB1] complex, sequence (Q96SW2 whole entry): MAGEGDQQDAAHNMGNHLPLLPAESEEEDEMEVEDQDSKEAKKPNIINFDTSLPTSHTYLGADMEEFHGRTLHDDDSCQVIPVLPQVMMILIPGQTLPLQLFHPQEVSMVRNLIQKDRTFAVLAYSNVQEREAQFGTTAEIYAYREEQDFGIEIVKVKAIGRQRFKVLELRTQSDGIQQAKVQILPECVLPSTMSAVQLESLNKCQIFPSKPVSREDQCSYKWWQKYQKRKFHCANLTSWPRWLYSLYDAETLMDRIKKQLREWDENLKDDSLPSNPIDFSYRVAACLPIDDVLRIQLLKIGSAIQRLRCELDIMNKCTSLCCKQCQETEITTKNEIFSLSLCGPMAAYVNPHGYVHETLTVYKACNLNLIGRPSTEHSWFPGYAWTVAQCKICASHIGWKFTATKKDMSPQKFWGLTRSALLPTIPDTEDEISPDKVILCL
[MCL-1]-[compound of formula (I)]-[CRBN/DDB1] complex, sequence (Q16531 whole entry partner): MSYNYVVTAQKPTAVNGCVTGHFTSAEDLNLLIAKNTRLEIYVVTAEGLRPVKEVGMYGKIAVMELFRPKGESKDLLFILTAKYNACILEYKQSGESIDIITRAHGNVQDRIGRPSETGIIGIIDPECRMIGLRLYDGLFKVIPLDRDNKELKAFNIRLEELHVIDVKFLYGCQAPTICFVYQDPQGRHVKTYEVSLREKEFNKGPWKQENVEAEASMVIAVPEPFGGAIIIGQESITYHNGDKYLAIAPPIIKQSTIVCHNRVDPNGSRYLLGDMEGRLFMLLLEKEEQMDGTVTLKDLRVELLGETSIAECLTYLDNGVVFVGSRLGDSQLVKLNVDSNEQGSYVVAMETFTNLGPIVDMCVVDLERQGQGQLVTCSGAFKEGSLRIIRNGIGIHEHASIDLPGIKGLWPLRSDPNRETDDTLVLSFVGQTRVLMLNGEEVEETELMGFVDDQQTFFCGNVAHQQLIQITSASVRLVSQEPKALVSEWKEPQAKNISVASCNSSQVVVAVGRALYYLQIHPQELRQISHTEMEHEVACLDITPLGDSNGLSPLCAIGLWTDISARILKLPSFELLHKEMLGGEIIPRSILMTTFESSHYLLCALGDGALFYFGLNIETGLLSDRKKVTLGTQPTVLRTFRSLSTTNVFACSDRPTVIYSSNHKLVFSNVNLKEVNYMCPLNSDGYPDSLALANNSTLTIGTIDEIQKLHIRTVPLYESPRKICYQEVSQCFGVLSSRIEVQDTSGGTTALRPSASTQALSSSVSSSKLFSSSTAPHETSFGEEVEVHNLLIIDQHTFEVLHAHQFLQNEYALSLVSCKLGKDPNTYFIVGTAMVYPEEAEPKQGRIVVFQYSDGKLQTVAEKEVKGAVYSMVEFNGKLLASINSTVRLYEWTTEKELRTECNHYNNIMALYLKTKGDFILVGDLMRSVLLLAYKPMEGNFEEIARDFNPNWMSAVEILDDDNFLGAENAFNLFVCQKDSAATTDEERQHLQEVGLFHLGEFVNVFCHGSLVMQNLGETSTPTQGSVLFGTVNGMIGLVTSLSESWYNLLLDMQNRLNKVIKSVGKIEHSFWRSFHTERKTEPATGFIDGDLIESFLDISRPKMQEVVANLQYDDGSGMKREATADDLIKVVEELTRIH

Structure (SMILES)	IC50 [1] [µM]	EC50 [2] [µM]
Cc1nn(C)c(C)c1-c1c(Cl)ccc2c(CCCOc3cccc4ccccc34)c(C(=O)O)n(CCN3C[C@@H]4C[C@H]3CN4C(=O)COc3cccc4c3CN(C3CCC(=O)NC3=O)C4=O)c12 (stereo partly drawn) [Compound 209, 6-chloro-1-{2-[(1S,4S)-5-(2-{[2-(2,6-dioxopiperidin-3-yl)-1-oxo-2,3-dihydro-1H-isoindol-4-yl]oxy}acetyl)-2,5-diazabicyclo[2.2.1]heptan-2-yl]ethyl}-3-[3-(naphthalen-1-yloxy)propyl]-7-(1,3,5-trimethyl-1H-pyrazol-4-yl)-1H-indole-2-carboxylic acid]		< 0.1
Cc1nn(C)c(C)c1-c1c(Cl)ccc2c(CCCOc3cccc4c3CCCC4)c(C(=O)O)n(CCN3CCN(C(=O)COc4cccc5c4CN(C4CCC(=O)NC4=O)C5=O)CC3)c12 (stereo not shown) [Compound 219, 6-chloro-1-(2-(4-(2-((2-(2,6-dioxopiperidin-3-yl)-1-oxoisoindolin-4-yl)oxy)acetyl)piperazin-1-yl)ethyl)-3-(3-((5,6,7,8-tetrahydronaphthalen-1-yl)oxy)propyl)-7-(1,3,5-trimethyl-1H-pyrazol-4-yl)-1H-indole-2-carboxylic acid]		< 0.01
Cc1c2c(nn1C)CSCc1cc(n(C)n1)CSc1cc(c3ccccc3c1)OCCCc1c(C(=O)NS(=O)(=O)CCNC(=O)CCOCCOCCNc3cccc4c3C(=O)N(C3CCC(=O)NC3=O)C4=O)n(C)c3c-2c(Cl)ccc13 (stereo not shown) [Compound 261, N-{2-[({17-chloro-5,13,14,22-tetramethyl-28-oxa-2,9-dithia-5,6,12,13,22-pentaazaheptacyclo[27.7.1.1^4,^7.0^11,^15.0,^16,^21.0^20,^24.0^30,^35]octatriaconta-1(37),4(38),6,11,14,16,18,20,23,29,31,33,35-tridecaen-23-yl}formamido)sulfonyl]ethyl}-3-[2-(2-{[2-(2,6-dioxopiperidin-3-yl)-1,3-dioxo-2,3-dihydro-1H-isoindol-4-yl]amino}ethoxy)ethoxy]propanamide]		< 1
Cc1nn(C)c(C)c1-c1c(Cl)ccc2c(CCCOc3cccc4ccccc34)c(C(=O)O)n(CCN3CCN(C(=O)CCc4nc5c(C(=O)NC6CCC(=O)NC6=O)cccc5[nH]4)CC3)c12 (stereo not shown) [Compound 265]	≤ 1	
Cc1nn(C)c(C)c1-c1c(Cl)ccc2c(CCCOc3cccc4ccccc34)c(C(=O)O)n(CCN3CCN(C(=O)COc4cc(C(F)(F)F)nc5c(C(=O)NC6CCC(=O)NC6=O)scc45)CC3)c12 (stereo not shown) [Compound 267, 6-chloro-1-(2-{4-[2-({7-[(2,6-dioxopiperidin-3-yl)carbamoyl]-2-(trifluoromethyl)thieno[3,4-b]pyridin-4-yl}oxy)acetyl]piperazin-1-yl}ethyl)-3-[3-(naphthalen-1-yloxy)propyl]-7-(1,3,5-trimethyl-1H-pyrazol-4-yl)-1H-indole-2-carboxylic acid]		< 0.1

More lines, now with the values ahead:

IC50 [1] [µM]	EC50 [2] [µM]	Structure (SMILES)
≤ 0.316		Cc1nn(C)c(C)c1-c1c(Cl)ccc2c(CCCOc3cccc4ccccc34)c(C(=O)O)n(CCN3CCN(C(=O)COc4cccc5c4C(=O)N(C4CCC(=O)N(C)C4=O)C5=O)CC3)c12 (stereo not shown) [Compound 205, 6-chloro-1-(2-(4-(2-((2-(1-methyl-2,6-dioxopiperidin-3-yl)-1,3-dioxoisoindolin-4-yl)oxy)acetyl)piperazin-1-yl)ethyl)-3-(3-(naphthalen-1-yloxy)propyl)-7-(1,3,5-trimethyl-1H-pyrazol-4-yl)-1H-indole-2-carboxylic acid]
	< 0.1	Cc1nn(C)c(C)c1-c1c(Cl)ccc2c(CCCOc3cccc4ccccc34)c(C(=O)O)n(CCN3CC4CC(C3)N4C(=O)COc3cccc4c3C(=O)N(C3CCC(=O)NC3=O)C4=O)c12 (stereo not shown) [Compound 208, 6-chloro-1-(2-(6-(2-((2-(2,6-dioxopiperidin-3-yl)-1,3-dioxoisoindolin-4-yl)oxy)acetyl)-3,6-diazabicyclo[3.1.1]heptan-3-yl)ethyl)-3-(3-(naphthalen-1-yloxy)propyl)-7-(1,3,5-trimethyl-1H-pyrazol-4-yl)-1H-indole-2-carboxylic acid]
	< 1	Cc1cc(OCCCc2c(C(=O)O)n(C)c3c(-c4c(C)nn(CCCOCCOCCNc5cccc6c5C(=O)N(C5CCC(=O)NC5=O)C6=O)c4C)cccc23)cc(C)c1Cl (stereo not shown) [Compound 227, 3-(3-(4-chloro-3,5-dimethylphenoxy)propyl)-7-(1-(3-(2-(2-((2-(2,6-dioxopiperidin-3-yl)-1,3-dioxoisoindolin-4-yl)amino)ethoxy)ethoxy)propyl)-3,5-dimethyl-1H-pyrazol-4-yl)-1-methyl-1H-indole-2-carboxylic acid]
	< 1	Cc1nn(CCCOCCOCCNc2cccc3c2C(=O)N(C2CCC(=O)NC2=O)C3=O)c(C)c1-c1cccc2c(CCCOc3cccc4ccccc34)c(C(=O)O)n(CCN3CCOCC3)c12 (stereo not shown) [Compound 232, 7-(1-(3-(2-(2-((2-(2,6-dioxopiperidin-3-yl)-1,3-dioxoisoindolin-4-yl)amino)ethoxy)ethoxy)propyl)-3,5-dimethyl-1H-pyrazol-4-yl)-1-(2-morpholinoethyl)-3-(3-(naphthalen-1-yloxy)propyl)-1H-indole-2-carboxylic acid]
	< 1	Cc1cc(OCCCc2c(C(=O)O)n(CCN3CCN(C(=O)CNc4cccc5c4C(=O)N(C4CCC(=O)NC4=O)C5=O)CC3)c3c(-c4c(C)nn(C)c4C)cccc23)cc(C)c1Cl (stereo not shown) [Compound 233, 3-(3-(4-chloro-3,5-dimethylphenoxy)propyl)-1-(2-(4-((2-(2,6-dioxopiperidin-3-yl)-1,3-dioxoisoindolin-4-yl)glycyl)piperazin-1-yl)ethyl)-7-(1,3,5-trimethyl-1H-pyrazol-4-yl)-1H-indole-2-carboxylic acid]
	< 1	Cc1nn(C)c(COc2ccc(N3CCN(S(=O)(=O)N(C)C)CC3)cc2)c1-c1cccc2c(CCCOc3cccc4ccccc34)c(C(=O)O)n(CCN3CCN(CCCOCCOCCNc4cccc5c4C(=O)N(C4CCC(=O)NC4=O)C5=O)CC3)c12 (stereo not shown) [Compound 247, 7-(5-((4-(4-(N,N-dimethylsulfamoyl)piperazin-1-yl)phenoxy)methyl)-1,3-dimethyl-1H-pyrazol-4-yl)-1-(2-(4-(3-(2-(2-((2-(2,6-dioxopiperidin-3-yl)-1,3-dioxoisoindolin-4-yl)amino)ethoxy)ethoxy)propyl)piperazin-1-yl)ethyl)-3-(3-(naphthalen-1-yloxy)propyl)-1H-indole-2-carboxylic acid trifluoroacetate]
	< 1	Cc1nn(C)c(COc2ccc(N3CCN(S(=O)(=O)N(C)C)CC3)cc2)c1-c1cccc2c(CCCOc3cccc4ccccc34)c(C(=O)O)n(CCN3CCN(C(=O)COc4ccc5c(c4)C(=O)N(C4CCC(=O)NC4=O)C5=O)CC3)c12 (stereo not shown) [Compound 248, 7-(5-((4-(4-(N,N-dimethylsulfamoyl)piperazin-1-yl)phenoxy)methyl)-1,3-dimethyl-1H-pyrazol-4-yl)-1-(2-(4-(2-((2-(2,6-dioxopiperidin-3-yl)-1,3-dioxoisoindolin-5-yl)oxy)acetyl)piperazin-1-yl)ethyl)-3-(3-(naphthalen-1-yloxy)propyl)-1H-indole-2-carboxylic acid]
	< 0.1	Cc1c(-c2cccc3c(CCCOc4cccc5ccccc45)c(C(=O)O)n(CCN4CCN(C(=O)COc5cccc6c5C(=O)N(C5CCC(=O)NC5=O)C6=O)CC4)c23)c(COc2ccc(Br)c(C=O)c2)nn1C (stereo not shown) [Compound 251, 7-(3-((4-Bromo-3-formylphenoxy)methyl)-1,5-dimethyl-1H-pyrazol-4-yl)-1-(2-(4-(2-((2-(2,6-dioxopiperidin-3-yl)-1,3-dioxoisoindolin-4-yl)oxy)acetyl)piperazin-1-yl)ethyl)-3-(3-(naphthalen-1-yloxy)propyl)-1H-indole-2-carboxylic acid]
